The structures appear in SMILES notation. ≈ marks a conversion by molar mass, not a printed value. Read-outs that look alike come from different tables or passages of the source.

Three compounds from patent US8293784B2, “α-amino acid derivatives for improving solubility” (Merck Patent GmbH, priority 2007, dated 2012) can be followed below.

The nature of series [1]: Solubility of PBSA in aqueous solubiliser solutions, dissolved fraction determined by HPLC. Conditions: thermodynamic from solid, filtered. It is filed as physicochemical. As to the method: Firstly, 4% aqueous solutions of ectoine, creatinine and pyrrolidonecarboxylic acid are prepared. The active compound PBSA is subsequently dispersed in the solution in excess. The pH of the suspension is adjusted to 4.6. Undissolved active compound is filtered off after stirring for 1 hour. The dissolved active-compound fraction is determined by high-performance liquid chromatography. The experiment without solubiliser serves as comparison. In the case of dissolution of PBSA in aqueous creatinine solution, the solubility is additionally determined at pH 5.7, i.e. in this case the pH is not restored to 4.6.

Series [2] can be described thus: Visual assessment of the increase in solubility due to ectoine (clear vs cloudy solution). As to conditions: active compound incorporated at 1% (tiliroside) or 1.5% (5,7-dihydroxy-2-methylchromone). It is filed as physicochemical. As to the method: Firstly, 4% ectoine solutions are prepared in water and in a water/ethanol mixture (3:1). The active compound to be dissolved is subsequently incorporated into the two ectoine solutions in an amount of 1% and 1.5% respectively. The respective ectoine-free batches serve as comparison.

The mark [3] stands for this setting: 4% of ectoine in ethanol/water 3:1.
Setting [4] is: Ethanol/water 3:1, no ectoine (comparison).

`O=S(=O)(O)c1ccc2[nH]c(-c3ccccc3)nc2c1` [PBSA, 2-phenylbenzimidazole-5-sulfonic acid]: the solubility at 1 h in series [1] (4% aqueous creatinine solution, pH 4.6, aqueous with cosolvent or surfactant or cyclodextrin, pH of the dispersion set to 4.6, stirred 1 hour, read-out: Solubility of PBSA in water comprising 4% of creatinine) amounted to 940 µg/mL (≈ 3430 µM); in series [1] (4% aqueous creatinine solution, pH 5.7, aqueous with cosolvent or surfactant or cyclodextrin, pH of the dispersion 5.7 (pH not restored to 4.6), stirred 1 hour, read-out: Solubility of PBSA in water comprising 4% of creatinine), 8500 µg/mL (≈ 31000 µM); in series [1] (4% aqueous ectoine solution, pH 4.6, aqueous with cosolvent or surfactant or cyclodextrin, pH of the dispersion set to 4.6, stirred 1 hour, read-out: Solubility of PBSA in water comprising 4% of ectoine) it was 600 µg/mL (≈ 2190 µM); in series [1] (4% aqueous pyrrolidonecarboxylic acid solution, pH 4.6, aqueous with cosolvent or surfactant or cyclodextrin, pH of the dispersion set to 4.6, stirred 1 hour, read-out: Solubility of PBSA in water comprising 4% of pyrrolidonecarboxylic acid) it was 340 µg/mL (≈ 1240 µM); in series [1] (water without solubiliser, pH 4.6, aqueous buffer, no solubiliser, pH of the dispersion set to 4.6, stirred 1 hour, read-out: Solubility of PBSA in water) it was 340 µg/mL (≈ 1240 µM).

Regarding `O=C(/C=C/c1ccc(O)cc1)OC[C@H]1O[C@@H](Oc2c(-c3ccc(O)cc3)oc3cc(O)cc(O)c3c2=O)[C@H](O)[C@@H](O)[C@@H]1O` [Tiliroside, tiliroside], the “Appearance of solution (visual solubility assessment)” value is “clear solution” in series [2] (setting [3]) and “cloudy solution” in series [2] (setting [4]).

As to `Cc1cc(=O)c2c(O)cc(O)cc2o1` [5,7-Dihydroxy-2-methyl-chromone, 5,7-dihydroxy-2-methylchromone], the “Appearance of solution (visual solubility assessment)” value in series [2] (setting [3]) is “clear solution”; in series [2] (setting [4]) it was “cloudy solution”.
